Measurements: patent publication US9415034B2, “Inhibitors and enhancers of uridine diphosphate-glucuronosyltransferase 2B (UGT2B)” (NATIONAL DEFENSE MEDICAL CENTER, priority 2005, dated 2016)

System: UGT2B
Assay: in vitro
Details: for inhibition at 60 min, 8.5 μM / inhibition at 60 min, 85 μM / inhibition at 60 min, 850 μM / inhibition at 60 min, 8.5 µM / inhibition at 60 min, 85 µM / inhibition at 60 min, 850 µM: % Inhibition (Mean ± SD)
Protocol: In the following experiment, 27 different kinds of CHEs and 10 different excipients were used as UGT2B inhibitor in this invention. These CHEs are pure compounds available commercially, and were purchased from Sigma Chemical Co., Nacalai Tesque (Kyoto, Japan) and Indofine Chemical Co., Inc. (Somerville, N.J.). These UGT2B inhibitors are dissolved in alcohol at the concentration of 1, 10, 100 μM for the following experiment.
These excipients are dissolved in water and make up to 0.5%, 5%, 50% (wt %, w/v) for the following experiment. (Note: BRIJ is a registered trademark of ICI Americas, Inc.; Pluronic is a registered trademark of BASF Corporation.)
The Sprague-Dawley male rats, weighted 300-400 g are used as model animals in these experiments. The microsome is prepared as follows: • i. Sacrifice a rat after 12-16 hours fasting, take its liver; wipe dry the liver and weigh it. • ii. Add 300% (by volume) of cold 0.3M sucrose solution, and homogenize the liver. • iii. Centrifuge the homogenized liver suspension at 9000×g speed (KS-800, Kubota, made in Japan) for 10 min at 4° C. Collect the supernatant. • iv. Centrifuge the supernatant at 105,000×g speed (L8-60M, Beckman, made in USA) for 60 min at 4° C. • v. Remove the supernatant, add 0.3M sucrose (of the same volume) and repeat the homogenization. The homogenized liver suspension is the microsome. Store the microsome at −70° C.
Thaw the microsome before use. Add 5 μl/ml BRIJ®35 (Fisher et al. 2000, Drug Metabolism & Disposition. 28(5):560-6) into microsome by a ratio of microsome:BRIJ®35=8:1 (v/v).
The protein amount is determined as follows: • i. Take 0.1 ml microsome and dilute to 5 ml 0.85% NaCl (50-fold dilution, v/v). Take 0.2 ml of the diluted microsome and place it in a capped test tube (triple experiments). Separately, replacing microsome with 0.2 ml NaCl as the control. • ii. Add 2.2 ml Biuret regent (SIGMA, 690-A) into each test tube, mix well and store at room temperature for 10 min. • iii. Add 0.1 ml folin regent (SIGMA, 690-A), mix immediately, and store at room temperature for 30 min. Measure the absorbance at 550 nm wave length within the 30 min. Measure the concentration of protein in microsome based on the standard curve generated by various bovine albumin concentration and absorbance. 4. The Measurement of the Inhibition of UGT2B Activity in vitro • i. […] Mix solution (A) and 17 μl solution (B) thoroughly, place in a 37° C. water bath and shake at 125 rpm for 60 min. • iii. Add 1 ml ACN to interrupt the reaction. • iv. Centrifuge at 130,000×g speed at 4° C. for 5 min, and • v. […] 5.
Set the Ultra-violet detector's (SPD-10A, Shimadzu, Kyoto, made in Japan) wave length to 210 nm.
Those CHEs are commercially available pure compounds, acquired from Sigma Chemical Co., Nacalai Tesque (Kyoto, Japan) and […] (Somerville, N.J.). Their categories, names, sources, and chemical compositions are described in Table 5.

[1] = Table 6, enhancer 8.5 μM, negative = enhancement
[2] = Table 6, enhancer 85 μM, negative = enhancement
[3] = Table 6, enhancer 850 μM, negative = enhancement

SMILES	inhibition at 60 min, 8.5 μM (male, Sprague-Dawley, rat) [%]	inhibition at 60 min, 85 μM (male, Sprague-Dawley, rat) [%]	inhibition at 60 min, 850 μM (male, Sprague-Dawley, rat) [%]	% Inhibition (Mean ± SD) [1] [%]	% Inhibition (Mean ± SD) [2] [%]	% Inhibition (Mean ± SD) [3] [%]	also measured
O=c1c(O)c(-c2ccc(O)cc2)oc2cc(O)cc(O)c12 [kaempferol, Kaempferol]	-19.5 ± 14.2	-76 ± 27.3	-71.1 ± 4.51	–	–	–	–
CCCCCCCCCCCCO [lauryl alcohol, Lauryl Alcohol]	–	–	–	–	–	–	inhibition at 60 min, 8.5 µM (male, Sprague-Dawley, rat): 14.4 ± 3.37%; inhibition at 60 min, 85 µM (male, Sprague-Dawley, rat): 19.5 ± 3.46%; inhibition at 60 min, 850 µM (male, Sprague-Dawley, rat): 6.23 ± 6.75%
O=c1cc(-c2ccc(O)c(O)c2)oc2cc(O[C@@H]3O[C@H](CO)[C@@H](O)[C@H](O)[C@H]3O)cc(O)c12 [luteolin-7-glucoside, Luteolin-7-Glucoside]	–	–	–	−45.053 ± 3.583	−36.109 ± 9.203	−47.869 ± 26.599	–
C[C@@H]1O[C@@H](O[C@H]2[C@H](Oc3cc(O)c4c(c3)O[C@H](c3ccc(O)cc3)CC4=O)O[C@H](CO)[C@@H](O)[C@@H]2O)[C@H](O)[C@H](O)[C@H]1O [narigin, Narigin]	–	–	–	−124.10 ± 16.541	−80.70 ± 4.927	−98.15 ± 5.276	–
COc1ccc([C@@H]2CC(=O)c3c(O)cc(O[C@@H]4O[C@H](CO)[C@@H](O)[C@H](O)[C@H]4O[C@@H]4O[C@@H](C)[C@H](O)[C@@H](O)[C@H]4O)cc3O2)cc1O [neohesperidin, Neohesperidin]	–	–	–	−66.586 ± 9.614	−113.63 ± 8.986	−113.46 ± 16.721	–
CC1(C)CC[C@]2(C(=O)O)CC[C@]3(C)C(=CC[C@@H]4[C@@]5(C)CC[C@H](O)C(C)(C)[C@@H]5CC[C@]43C)[C@@H]2C1 [oleanolic acid, Oleanolic Acid]	–	–	–	–	–	–	inhibition at 60 min, 8.5 μM (male, Sprague-Dawley, rat, liver microsomes, probe nalbuphine, Table 6, enhancer 8.5 μM, negative = enhancement): -87.2 ± 24.4%; inhibition at 60 min, 85 μM (male, Sprague-Dawley, rat, liver microsomes, probe nalbuphine, Table 6, enhancer 85 μM, negative = enhancement): -136 ± 15.2%; inhibition at 60 min, 850 μM (male, Sprague-Dawley, rat, liver microsomes, probe nalbuphine, Table 6, enhancer 850 μM, negative = enhancement): -129 ± 22.1%
COc1ccc([C@@H]2CC(=O)c3c(O)cc(O[C@@H]4O[C@H](CO)[C@@H](O)[C@H](O)[C@H]4O[C@@H]4O[C@@H](C)[C@H](O)[C@@H](O)[C@H]4O)cc3O2)cc1 [poncirin, Poncirin]	–	–	–	−16.068 ± 8.122	−8.448 ± 8.261	−7.098 ± 18.196	–
O=c1c(-c2ccc(O)cc2)coc2c([C@@H]3O[C@H](CO)[C@@H](O)[C@H](O)[C@H]3O)c(O)ccc12 [puerarin, Puerarin]	–	–	–	–	–	–	inhibition at 60 min, 8.5 µM (male, Sprague-Dawley, rat): 3.92 ± 5.61%; inhibition at 60 min, 85 µM (male, Sprague-Dawley, rat): 18.3 ± 7.68%; inhibition at 60 min, 850 µM (male, Sprague-Dawley, rat): 10.1 ± 5.84%
O=c1c(O)c(-c2ccc(O)c(O)c2)oc2cc(O)cc(O)c12 [quercetin, Quercetin]	-81.4 ± 5.59	-143 ± 18.5	-119 ± 19.4	–	–	–	–
C[C@@H]1O[C@@H](Oc2c(-c3ccc(O)c(O)c3)oc3cc(O)cc(O)c3c2=O)[C@H](O)[C@H](O)[C@H]1O [quercitrin, Quercitrin]	–	–	–	−81.27 ± 15.027	−83.60 ± 27.446	−55.57 ± 12.151	–

More lines, main results first:

inhibition at 60 min, 8.5 μM (male, Sprague-Dawley, rat) [%]	inhibition at 60 min, 85 μM (male, Sprague-Dawley, rat) [%]	inhibition at 60 min, 850 μM (male, Sprague-Dawley, rat) [%]	SMILES	% Inhibition (Mean ± SD) [1] [%]	% Inhibition (Mean ± SD) [2] [%]	% Inhibition (Mean ± SD) [3] [%]	also measured
-9.38 ± 1.8	-17.7 ± 8.51	-29.2 ± 2.74	O=C1C[C@@H](c2ccc(O[C@@H]3O[C@H](CO)[C@@H](O)[C@H](O)[C@H]3O)cc2)Oc2cc(O)ccc21 [liquiritin, Liquiritin]	–	–	–	–
-25.5 ± 26.6	-28.3 ± 15.2	-17.6 ± 12.1	O=c1cc(-c2ccc(O)c(O)c2)oc2cc(O)cc(O)c12 [luteolin, Luteolin]	–	–	–	–
-142 ± 41	-165 ± 23	-188 ± 16.6	C[C@H](Cc1ccc(O)c(O)c1)[C@@H](C)Cc1ccc(O)c(O)c1 [nordihydroguaiaretic acid]	–	–	–	inhibition at 60 min (male, Sprague-Dawley, rat, rate of inhibition (enhancement of the metabolism of nalbuphine in liver microsome)): -188%
-20.2 ± 5.96	-4.56 ± 3.37	9.84 ± 1.87	O=C(O)c1ccc(O)c(O)c1 [protocatechuic acid, Protocatechuic acid]	–	–	–	inhibition at 60 min, 8.5 µM (male, Sprague-Dawley, rat): -20.2 ± 5.96%; inhibition at 60 min, 85 µM (male, Sprague-Dawley, rat): -4.56 ± 3.37%; inhibition at 60 min, 850 µM (male, Sprague-Dawley, rat): 9.84 ± 1.87%
